Laboratory results taken from ChEMBL document CHEMBL1201862, “PubChem BioAssay data set” (2004).
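Briefly, cells in 96-well plates were exposed to five compound concentrations for 48 h, and endpoints were estimated by linear interpolation. GI50 marks 50% less growth.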 Activity calls are given as the source filed them. Rule as the data show it: active = GI50 up to about 1.1 µM and inactive = higher.

Experiments:
Test in all cases: inhibition of tumour cell growth, NCI panel, 48 h
A549 = tested on: A549
SK-MEL-5 = tested on: SK-MEL-5
MOLT-4 = tested on: MOLT-4
OVCAR-3 = tested on: OVCAR-3
SN12C = tested on: SN12C
KM-20L2 = tested on: KM-20L2
A498 = tested on: A498
U-251 = tested on: U-251
SK-OV-3 = tested on: SK-OV-3
LOX IMVI = tested on: LOX IMVI
Malme-3M = tested on: Malme-3M
SNB-75 = tested on: SNB-75
DLD-1 = tested on: DLD-1
COLO 205 = tested on: COLO 205
RXF 393 = tested on: RXF 393
HOP-92 = tested on: HOP-92
SF-295 = tested on: SF-295
M14 = tested on: M14
M19-MEL = tested on: M19-MEL
NCI-H522 = tested on: NCI-H522
HT-29 = tested on: HT-29
NCI-H226 = tested on: NCI-H226
UACC-62 = tested on: UACC-62
CAKI-1 = tested on: CAKI-1
OVCAR-4 = tested on: OVCAR-4
SK-MEL-28 = tested on: SK-MEL-28
HCT-116 = tested on: HCT-116
SNB-19 = tested on: SNB-19
NCI-H23 = tested on: NCI-H23
KM12 = tested on: KM12
SNB-78 = tested on: SNB-78
SR = tested on: SR
786-0 = tested on: 786-0
SK-MEL-2 = tested on: SK-MEL-2
DMS-273 = tested on: DMS-273
UO-31 = tested on: UO-31
HCT-15 = tested on: HCT-15
SF-539 = tested on: SF-539
OVCAR-5 = tested on: OVCAR-5
SF-268 = tested on: SF-268
IGROV-1 = tested on: IGROV-1
HOP-18 = tested on: HOP-18
EKVX = tested on: EKVX
OVCAR-8 = tested on: OVCAR-8
RPMI-8226 = tested on: RPMI-8226
UACC-257 = tested on: UACC-257
DMS-114 = tested on: DMS-114
CCRF-CEM = tested on: CCRF-CEM
TK-10 = tested on: TK-10
K562 = tested on: K562
HCC 2998 = tested on: HCC 2998
LXFL 529 = tested on: LXFL 529
NCI-H460 = tested on: NCI-H460
ACHN = tested on: ACHN
HL-60 = tested on: HL-60
SW-620 = tested on: SW-620
XF498 = tested on: XF498
HOP-62 = tested on: HOP-62

COc1ccc(CCc2ccccc2CC(=O)O)cc1
GI50 (A549): > 100 µM (inactive) | GI50 (SK-MEL-5): > 100 µM (inactive) | GI50 (MOLT-4): > 100 µM (inactive) | GI50 (OVCAR-3): > 100 µM (inactive) | GI50 (SN12C): > 100 µM (inactive) | GI50 (KM-20L2): > 100 µM (inactive) | GI50 (A498): > 100 µM (inactive) | GI50 (U-251): > 100 µM (inactive) | GI50 (SK-OV-3): > 100 µM (inactive) | GI50 (LOX IMVI): > 100 µM (inactive) | GI50 (Malme-3M): > 100 µM (inactive) | GI50 (SNB-75): > 100 µM (inactive) | GI50 (DLD-1): > 100 µM (inactive) | GI50 (COLO 205): > 100 µM (inactive) | GI50 (RXF 393): > 100 µM (inactive) | GI50 (HOP-92): > 100 µM (inactive) | GI50 (SF-295): > 100 µM (inactive) | GI50 (M14): > 100 µM (inactive) | GI50 (M19-MEL): > 100 µM (inactive) | GI50 (NCI-H522): > 100 µM (inactive) | GI50 (HT-29): > 100 µM (inactive) | GI50 (NCI-H226): > 100 µM (inactive) | GI50 (UACC-62): > 100 µM (inactive) | GI50 (CAKI-1): > 100 µM (inactive) | GI50 (OVCAR-4): > 100 µM (inactive) | GI50 (SK-MEL-28): > 100 µM (inactive) | GI50 (HCT-116): > 100 µM (inactive) | GI50 (SNB-19): > 100 µM (inactive) | GI50 (NCI-H23): > 100 µM (inactive) | GI50 (KM12): > 100 µM (inactive) | GI50 (SNB-78): > 100 µM (inactive) | GI50 (SR): > 100 µM (inactive) | GI50 (786-0): > 100 µM (inactive) | GI50 (SK-MEL-2): > 100 µM (inactive) | GI50 (DMS-273): > 100 µM (inactive) | GI50 (UO-31): > 100 µM (inactive) | GI50 (HCT-15): > 100 µM | GI50 (SF-539): > 100 µM (inactive) | GI50 (OVCAR-5): > 100 µM (inactive) | GI50 (SF-268): > 100 µM (inactive) | GI50 (IGROV-1): > 100 µM (inactive) | GI50 (HOP-18): > 100 µM (inactive) | GI50 (EKVX): > 100 µM (inactive) | GI50 (OVCAR-8): > 100 µM (inactive) | GI50 (RPMI-8226): > 100 µM (inactive) | GI50 (UACC-257): > 100 µM (inactive) | GI50 (DMS-114): > 100 µM (inactive) | GI50 (CCRF-CEM): > 100 µM (inactive) | GI50 (TK-10): > 100 µM (inactive) | GI50 (K562): > 100 µM (inactive) | GI50 (HCC 2998): > 100 µM (inactive) | GI50 (LXFL 529): > 100 µM (inactive) | GI50 (NCI-H460): > 100 µM (inactive) | GI50 (ACHN): > 100 µM (inactive) | GI50 (HL-60): > 100 µM (inactive) | GI50 (SW-620): > 100 µM (inactive) | GI50 (XF498): > 100 µM (inactive)

CC12C(=O)N(CCN)C(=O)C1C1c3ccccc3C2c2ccccc21 (configuration not stated)
GI50 (A549): > 100 µM (inactive) | GI50 (SK-MEL-5): > 100 µM (inactive) | GI50 (MOLT-4): > 100 µM (inactive) | GI50 (OVCAR-3): > 100 µM (inactive) | GI50 (SN12C): > 100 µM (inactive) | GI50 (KM-20L2): > 100 µM (inactive) | GI50 (A498): > 100 µM (inactive) | GI50 (U-251): > 100 µM (inactive) | GI50 (SK-OV-3): > 100 µM (inactive) | GI50 (Malme-3M): > 100 µM (inactive) | GI50 (SNB-75): 37.3 µM (inactive) | GI50 (DLD-1): > 100 µM (inactive) | GI50 (COLO 205): > 100 µM (inactive) | GI50 (HOP-92): 28.9 µM (inactive) | GI50 (SF-295): > 100 µM (inactive) | GI50 (M14): > 100 µM (inactive) | GI50 (M19-MEL): > 100 µM (inactive) | GI50 (NCI-H522): > 100 µM (inactive) | GI50 (HT-29): 58.3 µM (inactive) | GI50 (NCI-H226): > 100 µM (inactive) | GI50 (UACC-62): > 100 µM (inactive) | GI50 (CAKI-1): > 100 µM (inactive) | GI50 (OVCAR-4): > 100 µM (inactive) | GI50 (SK-MEL-28): > 100 µM (inactive) | GI50 (HCT-116): > 100 µM (inactive) | GI50 (SNB-19): > 100 µM (inactive) | GI50 (NCI-H23): > 100 µM (inactive) | GI50 (KM12): > 100 µM (inactive) | GI50 (SNB-78): > 100 µM (inactive) | GI50 (786-0): > 100 µM (inactive) | GI50 (SK-MEL-2): > 100 µM (inactive) | GI50 (DMS-273): > 100 µM (inactive) | GI50 (UO-31): > 100 µM (inactive) | GI50 (HCT-15): > 100 µM | GI50 (SF-539): > 100 µM (inactive) | GI50 (OVCAR-5): > 100 µM (inactive) | GI50 (SF-268): > 100 µM (inactive) | GI50 (IGROV-1): > 100 µM (inactive) | GI50 (HOP-18): > 100 µM (inactive) | GI50 (EKVX): > 100 µM (inactive) | GI50 (OVCAR-8): > 100 µM (inactive) | GI50 (RPMI-8226): > 100 µM (inactive) | GI50 (UACC-257): > 100 µM (inactive) | GI50 (DMS-114): > 100 µM (inactive) | GI50 (CCRF-CEM): > 100 µM (inactive) | GI50 (TK-10): > 100 µM (inactive) | GI50 (K562): > 100 µM (inactive) | GI50 (HCC 2998): > 100 µM (inactive) | GI50 (LXFL 529): > 100 µM (inactive) | GI50 (NCI-H460): > 100 µM (inactive) | GI50 (ACHN): > 100 µM (inactive) | GI50 (HL-60): 77.8 µM (inactive) | GI50 (SW-620): > 100 µM (inactive) | GI50 (XF498): > 100 µM (inactive) | GI50 (HOP-62): > 100 µM (inactive)
